Source: patent US8410117B2, “Imidazopyrimidine derivatives” (Hoffmann-La Roche Inc., priority 2010, dated 2013)

Target: T1, human PDE10A (Homo sapiens, UniProt Q9Y233)
T1 construct: The human PDE10A full length assay; purchased Enzo Life Science, Lausen, Switzerland SE-534
Assay: human PDE10A full length Scintillation Proximity Assay (SPA)
Format: biochemical
Settings: 50 nM cGMP and 50 nM [3H]-cGMP, 20 minutes at room temperature; read-out: PDE10A inhibition IC50
Procedure: The following test was carried out in order to determine the activity of the compounds of the present invention. PDE10 activity of the compounds of the present invention was determined using a Scintillation Proximity Assay (SPA)-based method similar to the one previously described (Fawcett, L. et al., Proc Natl Acad Sci USA (2000) 97(7):3702-3707).
The human PDE10A full length assay was performed in 96-well micro titer plates. The reaction mixture of 50 μl contained 20 mM HEPES pH=7.5/10 mM MgCl2/0.05 mg/ml BSA (Sigma cat. #A-7906), 50 nM cGMP (Sigma, cat. #G6129) and 50 nM [^3H]-cGMP (GE Healthcare, cat. #TRK392 S.A. 13.2 Ci/mmol), 3.75 ng/well PDE10A enzyme (Enzo Life Science, Lausen, Switzerland cat #SE-534) with or without a specific test compound. A range of concentrations of the potential inhibitor was used to generate data for calculating the concentration of inhibitor resulting in 50% of the effect (e.g. IC50, the concentration of the competitor inhibiting PDE10A activity by 50%). Non-specific activity was tested without the enzyme. The reaction was initiated by the addition of the substrate solution (cGMP and [^3H]-cGMP) and allowed to progress for 20 minutes at room temperature. The reaction was terminated by adding 25 μl of YSi-SPA scintillation beads (GE Healthcare, cat. #RPNQ0150) in 18 mM zinc sulphate solution (stop reagent). After 1 h under shaking, the plate was centrifuged one minute at 170 g to allow beads to settle. Afterwards, radioactive counts were measured on a Perkin Elmer TopCount Scintillation plate reader.

T1 sequence (Q9Y233 1-779 isoform Q9Y233-1): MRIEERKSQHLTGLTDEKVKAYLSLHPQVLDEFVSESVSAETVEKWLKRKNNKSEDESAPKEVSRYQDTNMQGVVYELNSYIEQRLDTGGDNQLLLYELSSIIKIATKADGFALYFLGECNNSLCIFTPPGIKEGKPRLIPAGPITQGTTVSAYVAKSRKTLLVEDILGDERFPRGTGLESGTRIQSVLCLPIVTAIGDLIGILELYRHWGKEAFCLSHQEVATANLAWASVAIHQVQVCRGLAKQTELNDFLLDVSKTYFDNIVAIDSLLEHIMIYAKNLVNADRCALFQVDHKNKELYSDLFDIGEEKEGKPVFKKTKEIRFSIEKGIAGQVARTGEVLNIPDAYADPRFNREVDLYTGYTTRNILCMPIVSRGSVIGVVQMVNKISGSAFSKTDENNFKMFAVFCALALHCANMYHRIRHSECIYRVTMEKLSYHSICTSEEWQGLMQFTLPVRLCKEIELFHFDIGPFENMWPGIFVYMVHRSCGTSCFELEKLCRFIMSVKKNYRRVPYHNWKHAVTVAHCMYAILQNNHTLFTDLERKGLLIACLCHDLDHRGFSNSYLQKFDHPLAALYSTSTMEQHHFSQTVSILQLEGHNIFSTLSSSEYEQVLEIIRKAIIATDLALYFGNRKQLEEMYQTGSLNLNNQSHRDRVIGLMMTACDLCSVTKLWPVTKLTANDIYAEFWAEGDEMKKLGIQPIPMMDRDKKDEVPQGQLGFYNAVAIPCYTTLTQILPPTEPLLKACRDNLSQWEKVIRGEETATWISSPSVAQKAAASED

Row | Compound | IC50 [nM]
1 | Cc1cc(Br)cnc1C(=O)Nc1ccn2cc(-c3ccccc3)nc2n1 [Example 23, 5-Bromo-3-methyl-pyridine-2-carboxylic acid (2-phenyl-imidazo[1,2-a]pyrimidin-7-yl)-amide] | 64.3
2 | Cn1ncc(C(=O)N2CCC2)c1C(=O)Nc1ccn2cc(-c3cccc(F)c3)nc2n1 [Example 91, 4-(Azetidine-1-carbonyl)-2-methyl-2H-pyrazole-3-carboxylic acid [2-(3-fluoro-phenyl)-imidazo[1,2-a]pyrimidin-7-yl]-amide] | 6.1
3 | CCOC(=O)c1cnn(CC)c1C(=O)Nc1ccn2cc(-c3ccccc3)nc2n1 [Example 62, 1-Ethyl-5-(2-phenyl-imidazo[1,2-a]pyrimidin-7-ylcarbamoyl)-1H-pyrazole-4-carboxylic acid ethyl ester] | 12.9
4 | COc1cccc(-c2cn3ccc(NC(=O)c4c(C(=O)N(C)CCOCCF)cnn4C)nc3n2)c1 [Example 110] | 222
5 | Cn1ncc(C(=O)NCc2ncco2)c1C(=O)Nc1ccn2cc(-c3ccccc3)nc2n1 [Example 122, 1-methyl-N4-(oxazol-2-ylmethyl)-N5-(2-phenylimidazo[1,2-a]pyrimidin-7-yl)-1H-pyrazole-4,5-dicarboxamide] | 16.9
6 | Cn1ncc(C(=O)NCc2ccc(C#N)nc2)c1C(=O)Nc1ccn2cc(-c3ccccc3)nc2n1 [Example 142, N4-((6-cyanopyridin-3-yl)methyl)-1-methyl-N5-(2-phenylimidazo[1,2-a]pyrimidin-7-yl)-1H-pyrazole-4,5-dicarboxamide] | 152
7 | CN(CC#N)C(=O)c1cnn(C)c1C(=O)Nc1ccn2cc(-c3ccccc3)nc2n1 [Example 119, N4-(cyanomethyl)-N4,1-dimethyl-N5-(2-phenylimidazo[1,2-a]pyrimidin-7-yl)-1H-pyrazole-4,5-dicarboxamide] | 13.3
8 | Cn1cc(Cl)c(CNC(=O)c2cnn(C)c2C(=O)Nc2ccn3cc(-c4ccccc4)nc3n2)n1 [Example 158, N4-((4-chloro-1-methyl-1H-pyrazol-3-yl)methyl)-1-methyl-N5-(2-phenylimidazo[1,2-a]pyrimidin-7-yl)-1H-pyrazole-4,5-dicarboxamide] | 427
9 | CC(C)NC(=O)c1cnn(C)c1C(=O)Nc1ccn2cc(-c3ccccc3)nc2n1 [Example 60, 2-Methyl-2H-pyrazole-3,4-dicarboxylic acid 4-isopropylamide 3-[(2-phenyl-imidazo[1,2-a]pyrimidin-7-yl)-amide]] | 80.6
10 | Cn1ncc(C(=O)NCc2noc(C3CC3)n2)c1C(=O)Nc1ccn2cc(-c3ccccc3)nc2n1 [Example 166, N4-((5-cyclopropyl-1,2,4-oxadiazol-3-yl)methyl)-1-methyl-N5-(2-phenylimidazo[1,2-a]pyrimidin-7-yl)-1H-pyrazole-4,5-dicarboxamide] | 812
11 | Cn1ncc(C(=O)NCc2ccccc2)c1C(=O)Nc1ccn2cc(-c3ccccc3)nc2n1 [Example 162, N4-benzyl-1-methyl-N5-(2-phenylimidazo[1,2-a]pyrimidin-7-yl)-1H-pyrazole-4,5-dicarboxamide] | 624
12 | Cn1ncc(C(=O)N2CCC2)c1C(=O)Nc1ccn2cc(-c3cccc(O)c3)nc2n1 [Example 83, 4-(Azetidine-1-carbonyl)-2-methyl-2H-pyrazole-3-carboxylic acid [2-(3-hydroxy-phenyl)-imidazo[1,2-a]pyrimidin-7-yl]-amide] | 3.4
13 | Cn1ncc(C(=O)N2CCOCC2c2cccnc2)c1C(=O)Nc1ccn2cc(-c3ccccc3)nc2n1 (stereo not shown) [Example 137, 1-methyl-N-(2-phenylimidazo[1,2-a]pyrimidin-7-yl)-4-(3-(pyridin-3-yl)morpholine-4-carbonyl)-1H-pyrazole-5-carboxamide] | 117
14 | Cc1ccc(CNC(=O)c2cnn(C)c2C(=O)Nc2ccn3cc(-c4ccccc4)nc3n2)nc1 [Example 155, 1-methyl-N4-((5-methylpyridin-2-yl)methyl)-N5-(2-phenylimidazo[1,2-a]pyrimidin-7-yl)-1H-pyrazole-4,5-dicarboxamide] | 346
15 | COCCCNC(=O)c1cnn(C)c1C(=O)Nc1ccn2cc(-c3ccccc3)nc2n1 [Example 39, 2-Methyl-2H-pyrazole-3,4-dicarboxylic acid 4-[(3-methoxy-propyl)-amide]3-[(2-phenyl-imidazo[1,2-a]pyrimidin-7-yl)-amide]] | 86.4
16 | CNC(=O)c1cnn(C)c1C(=O)Nc1ccn2cc(-c3cccc(Cl)c3)nc2n1 [Example 32, 2-Methyl-2H-pyrazole-3,4-dicarboxylic acid 3-{[2-(3-chloro-phenyl)-imidazo[1,2-a]pyrimidin-7-yl]-amide}4-methylamide] | 22.8

Row | Compound | IC50 [nM]
17 | CCNC(=O)c1cnn(C)c1C(=O)Nc1ccn2cc(-c3ccccc3)nc2n1 [Example 50, 2-Methyl-2H-pyrazole-3,4-dicarboxylic acid 4-ethylamide 3-[(2-phenyl-imidazo[1,2-a]pyrimidin-7-yl)-amide]] | 24.4
18 | Cn1ncc(C(=O)NCC(F)F)c1C(=O)Nc1ccn2cc(-c3ccccc3)nc2n1 [Example 129, N4-(2,2-difluoroethyl)-1-methyl-N5-(2-phenylimidazo[1,2-a]pyrimidin-7-yl)-1H-pyrazole-4,5-dicarboxamide] | 33.2
19 | CN(CCF)C(=O)c1cnn(C)c1C(=O)Nc1ccn2cc(-c3ccccc3)nc2n1 [Example 95, 2-Methyl-2H-pyrazole-3,4-dicarboxylic acid 4-[(2-fluoro-ethyl)-methyl-amide]3-[(2-phenyl-imidazo[1,2-a]pyrimidin-7-yl)-amide]] | 12.2
20 | Cn1ncc(C(=O)NCc2nnn[nH]2)c1C(=O)Nc1ccn2cc(-c3ccccc3)nc2n1 [Example 147, N4-((1H-tetrazol-5-yl)methyl)-1-methyl-N5-(2-phenylimidazo[1,2-a]pyrimidin-7-yl)-1H-pyrazole-4,5-dicarboxamide] | 235
21 | Cc1nc(CNC(=O)c2cnn(C)c2C(=O)Nc2ccn3cc(-c4ccccc4)nc3n2)no1 [Example 168, 1-methyl-N-4-((5-methyl-1,2,4-oxadiazol-3-yl)methyl)-N5-(2-phenylimidazo[1,2-a]pyrimidin-7-yl)-1H-pyrazole-4,5-dicarboxamide] | 865
22 | COCCN(C)C(=O)c1cnn(C)c1C(=O)Nc1ccn2cc(-c3ccccc3)nc2n1 [Example 55, 2-Methyl-2H-pyrazole-3,4-dicarboxylic acid 4-[(2-methoxy-ethyl)-methyl-amide]3-[(2-phenyl-imidazo[1,2-a]pyrimidin-7-yl)-amide]] | 8.5
23 | Cc1cc(CNC(=O)c2cnn(C)c2C(=O)Nc2ccn3cc(-c4ccccc4)nc3n2)n[nH]1 [Example 121, 1-methyl-N-4-((5-methyl-1H-pyrazol-3-yl)methyl)-N5-(2-phenylimidazo[1,2-a]pyrimidin-7-yl)-1H-pyrazole-4,5-dicarboxamide] | 16.7
24 | CC(C)c1noc(CNC(=O)c2cnn(C)c2C(=O)Nc2ccn3cc(-c4ccccc4)nc3n2)n1 [Example 171, N4-((3-isopropyl-1,2,4-oxadiazol-5-yl)methyl)-1-methyl-N5-(2-phenylimidazo[1,2-a]pyrimidin-7-yl)-1H-pyrazole-4,5-dicarboxamide] | 989
25 | Cn1ncc(Br)c1C(=O)Nc1ccn2cc(-c3ccccc3)nc2n1 [Example 6, 4-Bromo-2-methyl-2H-pyrazole-3-carboxylic acid (2-phenyl-imidazo[1,2-a]pyrimidin-7-yl)-amide] | 384
26 | Cn1ncc(C(=O)N2CC=CC2)c1C(=O)Nc1ccn2cc(-c3ccccc3)nc2n1 [Example 114, 4-(2,5-dihydro-1H-pyrrole-1-carbonyl)-1-methyl-N-(2-phenylimidazo[1,2-a]pyrimidin-7-yl)-1H-pyrazole-5-carboxamide] | 2.8
27 | CC(C)N(C)C(=O)c1cnn(C)c1C(=O)Nc1ccn2cc(-c3ccccc3)nc2n1 [Example 54, 2-Methyl-2H-pyrazole-3,4-dicarboxylic acid 4-(isopropyl-methyl-amide) 3-[(2-phenyl-imidazo[1,2-a]pyrimidin-7-yl)-amide]] | 34.3
28 | Cn1ncc(C(=O)NCc2nc(C#N)cs2)c1C(=O)Nc1ccn2cc(-c3ccccc3)nc2n1 [Example 151, N4-((4-cyanothiazol-2-yl)methyl)-1-methyl-N5-(2-phenylimidazo[1,2-a]pyrimidin-7-yl)-1H-pyrazole-4,5-dicarboxamide] | 288
29 | O=C(Nc1ccn2cc(-c3ccccc3)nc2n1)c1cccc(Cl)n1 [Example 21, 6-Chloro-pyridine-2-carboxylic acid (2-phenyl-imidazo[1,2-a]pyrimidin-7-yl)-amide] | 314
30 | O=C(Nc1ccn2cc(-c3ccccc3)nc2n1)c1noc2c1CCCC2 [Example 18, 4,5,6,7-Tetrahydro-benzo[d] isoxazole-3-carboxylic acid (2-phenyl-imidazo[1,2-a]pyrimidin-7-yl)-amide] | 147
31 | Cc1oc(C2CC2)nc1CNC(=O)c1cnn(C)c1C(=O)Nc1ccn2cc(-c3ccccc3)nc2n1 [Example 165, N4-((2-cyclopropyl-5-methyloxazol-4-yl)methyl)-1-methyl-N5-(2-phenylimidazo[1,2-a]pyrimidin-7-yl)-1H-pyrazole-4,5-dicarboxamide] | 776
